Entries after “also recorded” stand apart in the source; their conditions may differ. Where two headings read alike, the source gives them in different places.
Tests used:
[1] = test system: L1210 cells; test: Life span of BDF1 mice inoculated ip with 10^6 L1210 leukemia cells; format: in vivo, mouse
Experimental: As illustrative examples of use of the compounds of the invention the following examples are given. […] These standard tests utilize protocols developed under the auspices of the Developmental Therapeutics Program, Division of Cancer Treatment, National Cancer Institute, Bethesda, Md., U.S.A. Except as otherwise indicated the tests conform to these protocols and are evaluated utilizing criteria defined by the protocols.
Values below 25% are considered capable of producing effective therapy, those below 10% are considered good and those below 5% are considered very good. This expresses the percent of the cells which survived treatment based upon the original cells in the inoculum. Those tests expressed as increases in life span (% ILS) indicate the increased life span of the drug treated group compared to a control group.
As an indicator of reproducible activity, compounds of the invention and other known cancer chemotherapeutic agents were screened against L1210 lymphoid leukemia in vivo utilizing the mouse as a test species. Normal NCI protocols for this test require 10^5 seed cells of the L1210 cell line.
Cytosine Arabinoside must be given every three hours.
Mice were inoculated intraperitoneally on day 0 with a million cells of murine leukemia L1210. Drug was given qd days 1, 4 and 7. Increased life span is the mean increase in the treated group presented as a percentage of the mean life span of control mice.
Mice were inoculated intraperitoneally on day 0 with a million cells of murine leukemia L1210. Drugs were given qd days 1, 3, 5 and 7. Increased life span is presented as a percentage of the mean life span of control mice.

[2] = test system: L1210/6MP, 6TG, 6TGR cells; test: Life span of mice inoculated with L1210 resistant to 6MP, 6TG, 6TGR; format: in vivo, mouse; conditions: for ILS: L1210/6MP,6TG; for activity against drug resistant cells (words): mouse, in vivo
[3] = test system: L1210/6MP, 6TG, 6TGR cells; test: L1210/6MP, 6TG, 6TGR cells surviving treatment; format: in vivo, mouse; conditions: for RCP (Residual Cell Population): L1210/6MP,6TG
Experimental: In Example G Compound 19 was tested against both L1210 cells and L1210 cells which were resistant to 6-Mercaptopurine, 6-Thioguanine and 6-Thioguanosine. […] As was noted above, drugs in the 6-Mercaptopurine family are presently among the drugs of choice for treatment of leukemia.

[4] = test system: L1210/ARA-C cells; test: Cytosine Arabinoside resistant L1210 cells surviving treatment; format: in vivo, mouse
[5] = test system: L1210/Compound 18 cells; test: Compound 18 resistant L1210 cells surviving treatment; format: in vivo, mouse
Experimental: In Examples G through K Compound 19 was tested against L1210 cell lines which had developed resistance to other known cancer chemotherapeutic agents.
In Example K, the results of which are shown in Table 11 below, Compound 19 was tested against drug resistant cell lines developed against Compound 18. […]

[6] = Solubility (maximum solubility); format: physicochemical
[7] = test system: B-16 melanoma; test: Activity against B-16 melanoma; conditions: in vivo
[8] = test system: Lewis lung carcinoma; test: Activity against Lewis lung carcinoma; conditions: in vivo
[9] = test system: drug resistant cell lines; test: Generation of drug resistant cell lines
[10] = Toxicity / maximum tolerated dosage in mice; format: in vivo; conditions: ip 104 mg/kg/inj, bid days 1,4,7; 11 CDF1 mice with Colon 26
[11] = ip 37 mg/kg/inj, bid days 1,3,5,7
[12] = ip 62 mg/kg/inj, bid days 1,4,7
[13] = ip 104 mg/kg/inj, qd days 1,4,7
[14] = ip 173 mg/kg/inj, qd days 1,4,7
[15] = oral 37 mg/kg/inj, bid days 1,3,5,7
[16] = oral 62 mg/kg/inj, bid days 1,4,7
[17] = listed as 2-amino-9-β-D-ribofuranosyl-9H-purine-6-sulfinamide

Nc1nc([S+](N)[O-])c2ncn([C@@H]3O[C@H](CO)[C@@H](O)[C@H]3O)c2n1 (mixture of isomers) [Compound 19, 2-amino-9-β-D-ribofuranosyl-9H-purine-6-sulfinamide]
Increased life span ([1]; 37 mg/kg/inj injected, qd days 1,3,5,7): 74% | Increased life span ([1]; 62 mg/kg/inj injected, qd days 1,3,5,7): 123% | Increased life span ([1]; 104 mg/kg/inj injected, qd days 1,3,5,7): 136% | Increased life span ([1]; 173 mg/kg/inj injected, qd days 1,3,5,7): 189% | dose at which significant activity is indicated ([1]; delivered only once on day 1, ip): about 37 mg per kg | T/C (%) ([1]; ip 13 mg/kg, qd day 1): 106% | T/C (%) ([1]; ip 22 mg/kg, qd day 1): 106% | Life span (% T/C) ([1]; ip 22 mg/kg/inj, bid days 1,3,5,7): 193% | Life span (% T/C) ([1]; ip 22 mg/kg/inj, bid days 1,4,7): 161% | Life span (% T/C) ([1]; ip 22 mg/kg/inj, bid days 1-7): 200% | T/C (%) ([1]; ip 37 mg/kg, qd day 1): 128% | % ILS [1, 11]: 79% | Life span (% T/C) [1, 11]: 236% | Life span (% T/C) ([1]; ip 37 mg/kg/inj, bid days 1,4,7): 216% | Life span (% T/C) ([1]; ip 37 mg/kg/inj, bid days 1-7): 233% | Life span (% T/C) ([1]; ip 37 mg/kg/inj, qd days 1,3,5,7): 174% | Increased life span ([1]; ip 37 mg/kg/inj, qd days 1,4,7): 54% | Life span (% T/C) ([1]; ip 37 mg/kg/inj, qd days 1,4,7): 154% | Life span (% T/C) ([1]; ip 37 mg/kg/inj, qd days 1-7): 213% | T/C (%) ([1]; ip 62 mg/kg, bid day 1): 184% | T/C (%) ([1]; ip 62 mg/kg, qd day 1): 135% | T/C (%) ([1]; ip 62 mg/kg, qid day 1): 194% | T/C (%) ([1]; ip 62 mg/kg, tid day 1): 183% | Life span (% T/C) ([1]; ip 62 mg/kg/inj, bid days 1,3,5,7): 285% | % ILS [1, 12]: 88% | Life span (% T/C) [1, 12]: 249% | long term survivors ([1]; ip 62 mg/kg/inj, bid days 1-7): 2 | Life span (% T/C) ([1]; ip 62 mg/kg/inj, bid days 1-7, 2 long term survivors not included): 361% | Life span (% T/C) ([1]; ip 62 mg/kg/inj, qd days 1,3,5,7): 223% | Increased life span ([1]; ip 62 mg/kg/inj, qd days 1,4,7): 93% | Life span (% T/C) ([1]; ip 62 mg/kg/inj, qd days 1,4,7): 193% | Life span (% T/C) ([1]; ip 62 mg/kg/inj, qd days 1-7): 239% | T/C (%) ([1]; ip 104 mg/kg, qd day 1): 151% | Life span (% T/C) ([1]; ip 104 mg/kg/inj, bid days 1,4,7, 1 toxic death not included): 311% | Life span (% T/C) ([1]; ip 104 mg/kg/inj, qd days 1,3,5,7): 236% | Increased life span [1, 13]: 130% | Life span (% T/C) [1, 13]: 230% | long term survivors ([1]; ip 104 mg/kg/inj, qd days 1-7): 1 | Life span (% T/C) ([1]; ip 104 mg/kg/inj, qd days 1-7, 1 long term survivor not included): 307% | T/C (%) ([1]; ip 173 mg/kg, qd day 1): 167% | Life span (% T/C) ([1]; ip 173 mg/kg/inj, qd days 1,3,5,7): 289% | Increased life span [1, 14]: 169% | Life span (% T/C) [1, 14]: 269% | in vivo antitumor activity ([1]; mouse, in vivo): good in vivo activity | oral activity (words) [1]: Oral activity is seen | Activity against I.P. L1210 cells, T/C ([1]; oral 37 mg/kg, bid days 1,3,5,7): 148.6% | Activity against I.P. L1210 cells, T/C ([1]; oral 37 mg/kg, qd days 1,4,7): 144.6% | % ILS [1, 15]: 49% | Increased life span ([1]; oral 37 mg/kg/inj, qd days 1,4,7): 45% | Activity against I.P. L1210 cells, T/C ([1]; oral 62 mg/kg, bid days 1,4,7): 140.0% | Activity against I.P. L1210 cells, T/C ([1]; oral 62 mg/kg, qd days 1,4,7): 144.6% | % ILS [1, 16]: 40% | Increased life span ([1]; oral 62 mg/kg/inj, qd days 1,4,7): 45% | Activity against I.P. L1210 cells, T/C ([1]; oral 104 mg/kg, qd days 1,4,7): 138.5% | Increased life span ([1]; oral 104 mg/kg/inj, qd days 1,4,7): 38% | Activity against I.P. L1210 cells, T/C ([1]; oral 173 mg/kg, qd days 1,4,7): 138.5% | Increased life span ([1]; oral 173 mg/kg/inj, qd days 1,4,7): 38% | oral activity (words) [1, 17]: active in both an oral and an injectable form; also recorded: orally active | % ILS ([1]; single agent day 1, Compound 19 173 mg/kg, Compound 18 22 mg/kg (Table 12)): 88% | % ILS ([1]; single agent day 1, Compound 19 173 mg/kg, Tiazofurin 22 mg/kg (Table 13)): 81% | Activity against I.P. L1210 cells resistant to 6MP, 6TG, 6TGR, T/C ([2]; 37 mg/kg, bid days 1,3,5,7): 165.6% | Activity against I.P. L1210 cells resistant to 6MP, 6TG, 6TGR, T/C ([2]; 62 mg/kg, bid day 1): 133.3% | Activity against I.P. L1210 cells resistant to 6MP, 6TG, 6TGR, T/C ([2]; 62 mg/kg, bid days 1,4,7): 175.0% | Activity against I.P. L1210 cells resistant to 6MP, 6TG, 6TGR, T/C ([2]; 62 mg/kg, qd day 1): 127.3% | Activity against I.P. L1210 cells resistant to 6MP, 6TG, 6TGR, T/C ([2]; 62 mg/kg, tid day 1): 133.3% | Activity against I.P. L1210 cells resistant to 6MP, 6TG, 6TGR, T/C ([2]; 104 mg/kg, bid day 1): 150.0% | Activity against I.P. L1210 cells resistant to 6MP, 6TG, 6TGR, T/C ([2]; 104 mg/kg, qd day 1): 122.2% | Activity against I.P. L1210 cells resistant to 6MP, 6TG, 6TGR, T/C ([2]; 173 mg/kg, qd day 1): 144.5% | ILS [2, 11]: 66% | ILS [2, 12]: 75% | ILS [2, 15]: 0% | ILS [2, 16]: 0% | activity against drug resistant cells (words) [2]: exhibited activity against the drug resistant cells; also recorded: active | activity against drug resistant cells (words) [2, 17]: demonstrated activity against cells which have become resistant to other chemotherapeutic agents | RCP (Residual Cell Population) [3, 11]: .28 | RCP (Residual Cell Population) [3, 12]: .09 | L1210/6MP, 6TG, 6TGR cells surviving (% of day zero inoculum) ([3]; ip 62 mg/kg, bid day 1): 15.9% | L1210/6MP, 6TG, 6TGR cells surviving (% of day zero inoculum) ([3]; ip 62 mg/kg, qd day 1): 15.9% | L1210/6MP, 6TG, 6TGR cells surviving (% of day zero inoculum) ([3]; ip 62 mg/kg, tid day 1): 15.9% | L1210/6MP, 6TG, 6TGR cells surviving (% of day zero inoculum) ([3]; ip 104 mg/kg, qd day 1): 54.5% | L1210/6MP, 6TG, 6TGR cells surviving (% of day zero inoculum) ([3]; ip 173 mg/kg, qd day 1): 4.6% | L1210/ARA-C cells surviving (% of day zero inoculum) [4, 13]: 1.7% | L1210/ARA-C cells surviving (% of day zero inoculum) ([4]; ip 173 mg/kg/inj, qd day 1): 0.02% | L1210/ARA-C cells surviving (% of day zero inoculum) [4, 14]: 0.6% | efficacy against ARA-C resistant line vs parent ([4]; mouse, in vivo): greater efficacy against this resistant cell line than it did to the parent non-drug resistant L1210 cells | L1210/Compound 18 cells surviving (% of day zero inoculum) ([5]; ip 62 mg/kg/day, bid day 1): 27.4% | L1210/Compound 18 cells surviving (% of day zero inoculum) ([5]; ip 62 mg/kg/day, qd day 1): 100.0% | L1210/Compound 18 cells surviving (% of day zero inoculum) ([5]; ip 104 mg/kg/day, qd day 1): 17.9% | L1210/Compound 18 cells surviving (% of day zero inoculum) ([5]; ip 173 mg/kg/day, qd day 1): 7.5% | activity against Compound 18 resistant L1210 ([5]; mouse, in vivo): effective against those L1210 cell lines which have developed resistance against Compound 18; also recorded: active against cells which developed resistance to Compound 18 | Maximum solubility (as dosage) [6]: 288 mg/kg | maximum solubility (as dose) [6]: 288 mg per kg | solubility relative to enantiomer B [6]: exhibits solubility characteristics of enantiomer B | water solubility [6]: water soluble | activity against B-16 melanoma [7]: No activity | activity against Lewis lung carcinoma [8]: No activity | generation of drug resistant cell lines (words) [9]: has not been found to generate resistant cell lines | generation of drug resistant cell lines (words) [9, 17]: lack of generating resistant cell lines; also recorded: lack of resistance cell generation | toxic deaths [10]: 6

Reference: patent US5026836A, “6-sulfenamide, 6-sulfinamide and 6-sulfonamide purines, purine nucleosides, purine nucleotides, pharmaceutical compositions, and processes of making” (priority 1988, dated 1991)
